These results are taken from ChEMBL document CHEMBL4834434, “Discovery of Novel and Potent N-Methyl-d-aspartate Receptor Positive Allosteric Modulators with Antidepressant-like Activity in Rodent Models” (J Med Chem, 2021).

Active and inactive are the calls of the source. The rule behind the calls is not given here.

For series [1], the system named is Mus musculus. In words: Antidepressant activity in icv dosed C57BL/6N mouse assessed as decrease in immobility time measured after 36 mins. In kind it is functional, organism-based.
Series [2] can be described thus: Brain to blood partition coefficient of the compound. In kind it is physicochemical, tissue-based. The following applies: read-out: logBB (converted).
Series [3] concerns the target T1, Glutamate NMDA receptor (Mus musculus) (UniProt P35436+Q91ZU9+Q03391+P35438+Q01097+Q01098+A2AIR5). Description: Positive allosteric modulation of C57BL/6 mouse NMDA receptor assessed as fold change in compound potentiated NMDA-induced current relative to NMDA current alone at 30 uM measured after 15 to 30 mins by patch-clamp method. The following applies: Brain, filed as positive allosteric modulator, time 15-30 min. In kind it is tissue-based.

The target of series [4] is T1, Glutamate NMDA receptor (Mus musculus). In words: Positive allosteric modulation of C57BL/6 mouse NMDA receptor assessed as potentiation of NMDA-induced current by measuring peak current amplitude at 30 uM measured after 15 to 30 mins by patch-clamp method (reference value: 54.6 +/- 4.6 pA). In kind it is tissue-based. The following applies: Brain, filed as positive allosteric modulator, time 15-30 min.

Series [5] can be described thus: Cytotoxicity against mouse L929 cells assessed as cell growth inhibition at 120 uM measured after 48 hrs by CCK8 assay relative to control. In kind it is cell-based.
Series [6] addresses T2, hERG (KCNH2) (Homo sapiens, UniProt Q12809). In words: Inhibition of human ERG expressed in CHO cells at 100 uM with holding potential at -80 to -60 mV for 500s followed by raise in potential at +30 mV for 2 sec and subsequent repolarization to -60 mV for 2 sec by whole-cell patch clamp method relative to control. The following applies: CHO cells expressing human ERG. In kind it is cell-based. In general terms: Patch clamp records ionic current or voltage across a cell membrane.

The nature of series [7]: Cytotoxicity against mouse L929 cells assessed as cell growth inhibition at 60 uM measured after 48 hrs by CCK8 assay relative to control. In kind it is cell-based.
Series [8] is described as follows: Cytotoxicity against human HEK293 cells assessed as cell growth inhibition at 120 uM measured after 48 hrs by CCK8 assay relative to control. In kind it is cell-based.
In series [9] the target is T1, Glutamate NMDA receptor (Mus musculus). In words: Positive allosteric modulation of C57BL/6 mouse NMDA receptor assessed as fold change in compound potentiated NMDA-induced current relative to NMDA current alone in presence of saturating glutamate by patch-clamp method. In kind it is tissue-based. The following applies: Brain, filed as positive allosteric modulator.

A short description of series [10]: Effect on locomotor activity in ICR mouse assessed as hypolocomotion at 10 mg/kg, ip measured after 90 mins. In kind it is ADME, organism-based. The following applies: in vivo, 1.5 h.
Series [11] is described as follows: Cytotoxicity against African green monkey Vero cells assessed as cell growth inhibition at 60 uM measured after 48 hrs by CCK8 assay relative to control. In kind it is cell-based. The following applies: chlorocebus sabaeus. In general terms: Tetrazolium dyes change colour on reduction, which living cells bring about.
In series [12] the target is T2, hERG (KCNH2). Description: Inhibition of human ERG expressed in CHO cells at 30 uM with holding potential at -80 to -60 mV for 500s followed by raise in potential at +30 mV for 2 sec and subsequent repolarization to -60 mV for 2 sec by whole-cell patch clamp method relative to control. In kind it is cell-based. The following applies: CHO cells expressing human ERG.

The subject of series [13] is Mus musculus. In words: Antidepressant activity in ICR mouse aassessed as inhibition of apomorphine-induced climbing behaviour at 10 mg/kg, ip administered prior to APO challenge and measured after 30 mins. In kind it is functional, organism-based.
A short description of series [14]: Cytotoxicity against human HEK293 cells assessed as cell growth inhibition at 60 uM measured after 48 hrs by CCK8 assay relative to control. In kind it is cell-based.
The target of series [15] is Glutamate NMDA receptor. Description: Positive allosteric modulation of C57BL/6 mouse NMDA receptor assessed as potentiation of NMDA-induced current in presence of saturating glutamate by patch-clamp method. In kind it is tissue-based, Brain.
Series [16] in a line: Effect on locomotor activity in ICR mouse assessed as hyperlocomotion at 10 mg/kg, ip measured after 90 mins. The following applies: in vivo, 1.5 h. In kind it is ADME, organism-based.
Series [17] relates to Mus musculus. In words: Antidepressant activity in ICR mouse assessed as decrease in immobility time at 30 mg/kg, ip measured after 26 mins by forced swim test. In kind it is functional, organism-based.
The subject of series [18] is Mus musculus. In words: Antidepressant activity in ICR mouse assessed as decrease in immobility time at 3 to 10 mg/kg, ip measured after 26 mins by forced swim test. In kind it is functional, organism-based. The following applies: dose 3-10 mg/kg.
Series [19] can be described thus: Cytotoxicity against African green monkey Vero cells assessed as cell growth inhibition at 120 uM measured after 48 hrs by CCK8 assay relative to control. In kind it is cell-based. The following applies: chlorocebus sabaeus.
The target in series [20] is Ionotropic glutamate receptor NMDA 1/2C (Homo sapiens) (UniProt Q05586+Q14957). Description: Positive allosteric modulation of GluN1/GluN2C (unknown origin) expressed in HEK293 cells assessed as enhancement of current induced by […] and glycine at 30 uM by whole-cell patch clamp method. In kind it is cell-based.
For series [21], the system named is Mus musculus. Description: Antidepressant activity in icv dosed CSDS-induced C57BL/6N mouse model assessed as reversal of reduction in CSDS-induced social interaction administered for 10 days by social interaction test. The following applies: time 10.0 day. In kind it is functional, organism-based.
Series [22] concerns the target T3, Glutamate NMDA receptor; GRIN1/GRIN2A (Homo sapiens) (UniProt Q05586+Q12879). In words: Effect on GluN1/GluN2A (unknown origin) expressed in HEK293 cells assessed as enhancement of glycine-induced current at 30 uM by whole-cell patch clamp method. In kind it is cell-based.
In series [23] the target is T1, Glutamate NMDA receptor (Mus musculus). In words: Positive allosteric modulation of ICR mouse primary cortical neuron NMDA receptor assessed as potentiation of NMDA-induced maximum current by whole-cell patch clamp method. In kind it is tissue-based. The following applies: Brain.
The target in series [24] is Glutamate NMDA receptor. In words: Positive allosteric modulation of ICR mouse primary cortical neuron NMDA receptor assessed as potentiation of glycine-induced current in presence of 100 uM NMDA by whole-cell patch clamp method. In kind it is tissue-based, Brain.
Series [25] concerns the target T3, Glutamate NMDA receptor; GRIN1/GRIN2A (Homo sapiens). In words: Positive allosteric modulation of GluN1/GluN2A (unknown origin) expressed in HEK293 cells assessed as enhancement of current induced by […] and glycine at 30 uM by whole-cell patch clamp method. In kind it is cell-based. The following applies: filed as positive allosteric modulator.
Series [26] concerns the target T1, Glutamate NMDA receptor (Mus musculus). In words: Positive allosteric modulation of ICR mouse primary cortical neuron NMDA receptor assessed as potentiation of NMDA-induced current at 10 uM in absence of exogenous glycine/D-serine by whole-cell patch clamp method. In kind it is tissue-based.
Series [27] concerns the target Ionotropic glutamate receptor NMDA 1/2D (Homo sapiens) (UniProt Q05586+O15399). Description: Negative allosteric modulation of GluN1/GluN2D (unknown origin) expressed in HEK293 cells assessed as inhibition of current induced by […] and glycine at 30 uM by whole-cell patch clamp method. In kind it is cell-based. The following applies: filed as negative allosteric modulator.

For series [28], the target named is T3, Glutamate NMDA receptor; GRIN1/GRIN2A (Homo sapiens). Description: Effect on GluN1/GluN2A (unknown origin) expressed in HEK293 cells assessed as enhancement of NMDA-induced current at 30 uM by whole-cell patch clamp method. In kind it is cell-based.
Series [29] addresses Glutamate NMDA receptor; GRIN1/GRIN2B (Homo sapiens) (UniProt Q05586+Q13224). In words: Positive allosteric modulation of GluN1/GluN2B (unknown origin) expressed in HEK293 cells assessed as enhancement of current induced by […] and glycine at 30 uM by whole-cell patch clamp method. In kind it is cell-based.
The test system of series [30] is Neuron. In words: Effect on AMPA receptor in ICR mouse hippocampal neuron assessed as increase in AMPA-induced current at 30 uM. In kind it is tissue-based.
The target of series [31] is T1, Glutamate NMDA receptor (Mus musculus). Description: Positive allosteric modulation of ICR mouse primary cortical neuron NMDA receptor assessed as potentiation of NMDA-induced current at 10 uM in presence of 30 uM exogenous glycine by whole-cell patch clamp method. In kind it is tissue-based. The following applies: Brain.
Series [32] concerns the target Glutamate NMDA receptor. In words: Positive allosteric modulation of ICR mouse primary cortical neuron NMDA receptor assessed as potentiation of NMDA-induced current in presence of 30 uM exogenous glycine by whole-cell patch clamp method (reference value: 23.9 +/- 1.3 uM). In kind it is tissue-based, Brain.
Series [33] relates to Neuron. In words: Effect on GABA receptor in ICR mouse hippocampal neuron assessed as increase in GABA-induced current at 30 uM. In kind it is tissue-based.

T2 sequence (Q12809 whole entry): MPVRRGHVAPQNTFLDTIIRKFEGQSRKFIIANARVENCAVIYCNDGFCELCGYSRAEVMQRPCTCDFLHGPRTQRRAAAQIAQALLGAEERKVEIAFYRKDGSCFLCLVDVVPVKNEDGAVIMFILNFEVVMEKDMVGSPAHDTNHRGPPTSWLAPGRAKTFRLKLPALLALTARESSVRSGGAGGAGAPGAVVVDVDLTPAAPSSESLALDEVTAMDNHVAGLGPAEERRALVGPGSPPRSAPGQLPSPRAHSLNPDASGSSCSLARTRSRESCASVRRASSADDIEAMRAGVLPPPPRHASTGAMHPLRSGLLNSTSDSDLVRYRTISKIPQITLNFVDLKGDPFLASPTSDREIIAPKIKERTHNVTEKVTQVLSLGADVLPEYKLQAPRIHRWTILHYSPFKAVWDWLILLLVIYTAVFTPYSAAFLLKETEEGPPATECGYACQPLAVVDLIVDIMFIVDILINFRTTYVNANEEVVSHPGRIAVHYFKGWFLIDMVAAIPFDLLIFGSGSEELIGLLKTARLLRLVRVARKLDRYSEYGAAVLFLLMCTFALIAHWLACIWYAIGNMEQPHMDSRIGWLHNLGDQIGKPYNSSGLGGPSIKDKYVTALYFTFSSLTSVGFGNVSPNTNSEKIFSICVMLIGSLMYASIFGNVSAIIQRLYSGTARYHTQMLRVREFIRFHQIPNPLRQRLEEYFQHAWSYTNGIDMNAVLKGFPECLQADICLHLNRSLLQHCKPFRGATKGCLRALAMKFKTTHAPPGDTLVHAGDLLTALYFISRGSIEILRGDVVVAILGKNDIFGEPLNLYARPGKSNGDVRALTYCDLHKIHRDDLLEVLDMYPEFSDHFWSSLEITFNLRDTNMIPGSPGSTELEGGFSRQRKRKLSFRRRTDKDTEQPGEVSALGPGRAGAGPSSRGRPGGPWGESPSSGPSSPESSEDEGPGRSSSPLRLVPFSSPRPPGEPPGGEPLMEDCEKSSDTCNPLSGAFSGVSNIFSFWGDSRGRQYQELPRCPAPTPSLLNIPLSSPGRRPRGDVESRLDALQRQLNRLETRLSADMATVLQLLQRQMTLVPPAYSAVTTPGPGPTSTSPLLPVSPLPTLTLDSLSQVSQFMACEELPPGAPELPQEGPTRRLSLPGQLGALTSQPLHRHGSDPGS

As to `CNCCC(Oc1ccc(C(F)(F)F)cc1)c1ccccc1` (centres undefined), the outcome with Mus musculus [1] was Active.

As to `O=C(Nc1ccc(Cl)cc1C(=O)NCCCCO)c1ccco1`, in series [2], the Kp was 0.0776. In addition, the fold change (FC) in series [3] turned out to be 3.5. In addition, the Activity in series [4] is 1320 pA.

As a reminder, the inhibition is the drop in the measured response relative to a control, in per cent. Usually EC50 stands for the concentration at which the effect is half-maximal. For the compound `Cc1cc(C)n(Cc2ccc(C(=O)Nc3ccc(F)cc3C)s2)n1`, the Kp in [2] is 0.794. In addition, the inhibition at 48 h, 120 µM came to 23.9% in series [5], 34.4% in [8] and 8.7% in series [19]. Moreover, the inhibition at 2 s, 100 µM against hERG (KCNH2) [6] turned out to be 47.6%. For the same compound, the inhibition at 48 h, 60 µM in [7] was 11.5%; in [11], -1.5%; in [14] it was 16.3%. Moreover, the fold change (FC) was 10.1 in [3] and 10.2 in series [9]. The Activity entry in [10] and in series [16] was “Non-Toxic” throughout. Besides, the inhibition at 2 s, 30 µM at hERG (KCNH2) [12] was found to be 33.4%. Moreover, the outcome with Mus musculus [13] and in the series with Mus musculus [18] was inactive. For the same compound, on Glutamate NMDA receptor [15], the concentration for a half-maximal effect (EC50) came to 7.8 µM. For the same compound, the result in the series with Mus musculus [17] was Active.

Regarding `Cc1cc(C)n(Cc2ccc(C(=O)Nc3ccc(-c4cccnc4)cc3)s2)n1`, in series [2], the Kp was 0.398. In addition, the inhibition at 48 h, 120 µM in [5] is 28.6%; in series [8], 18%; in series [19], -7.5%. Besides, the inhibition at 2 s, 100 µM against hERG (KCNH2) [6] was 53.4%. The inhibition at 48 h, 60 µM is 27.5% in [7], -3.8% in series [11] and 6.5% in series [14]. Moreover, the fold change (FC) in [3] was 14.3; in series [9], 12.8. For the same compound, the Activity result in series [10] and in [16] was “Non-Toxic” throughout. Moreover, the inhibition at 2 s, 30 µM on hERG (KCNH2) [12] was 44.2%. For the same compound, the result in the series with Mus musculus [13] and with Mus musculus [18] was inactive. The EC50 at Glutamate NMDA receptor [15] is 3.6 µM. Further, in the series on Mus musculus [17], the outcome was Active.

On to `Cc1cc(C)n(Cc2ccc(C(=O)Nc3ccc4cc[nH]c4c3)s2)n1`, for which, in series [2], the Kp was 0.316. The results for the inhibition at 48 h, 120 µM in series [5], in series [8] and in series [19] were 25.5%, 2.5% and -0.4%, respectively. For the same compound, the inhibition at 2 s, 100 µM at hERG (KCNH2) [6] was 46.7%. The figures for the inhibition at 48 h, 60 µM in [7], in series [11] and in series [14] were 2.8%, -3.2% and -7.4%, respectively. Besides, the fold change (FC) was determined as 8.9 in series [3] and 10.5 in [9]. Also, the Activity entry in [10] and in series [16] was “Non-Toxic” throughout. For the same compound, the inhibition at 2 s, 30 µM against hERG (KCNH2) [12] is 33.6%. Moreover, the result in the series on Mus musculus [13] and in the series with Mus musculus [17] was inactive. At Glutamate NMDA receptor [15], the EC50 stood at 9 µM.

As to `Cc1cc(C)n(Cc2ccc(C(=O)Nc3ccc(Br)cc3C)o2)n1`, the Kp in series [2] was 0.661. Also, the result in series [20], in series [22], in [23], in series [26], in series [28] and in [29] was inactive. For the same compound, the result (with Neuron [30]; in series [31]; in the series with Neuron [33]) was inactive. For the same compound, the outcome (in the series with Mus musculus [21]; with Mus musculus [1]; in series [25]; in series [27]) was Active. Further, the fold change (FC) came to 32 in series [3] and 3.8 in series [9]. For the same compound, the EC50 on Glutamate NMDA receptor [24] amounted to 11.8 µM; at Glutamate NMDA receptor [15], 8.8 µM; on Glutamate NMDA receptor [32] it was 13.6 µM. Also, the Activity in series [4] was determined as 1180 pA.
